Tests used:
Type in all cases: in vitro ADME
pepsin [1] = molecular target: T1, pepsin (Sus scrofa, UniProt P00791); assay: Protection of semaglutide under gastric conditions reproduced in vitro, with pepsin (Example 2, UHPLC-UV); settings: for Semaglutide residual content (%): simulated gastric medium at pH 1.2 with pepsin (3.2 mg/ml), 0.05 mg/ml semaglutide, 37° C.
Description: (§1) The purpose of this test is to show the gastric stability of semaglutide in a composition according to the invention. • Step 1) The tablet obtained in Example 1A was dissolved in 50 mL of drinking water in order to obtain a buffered solution. • Step 2) The simulated gastric medium was prepared with hydrochloric acid (0.2 N HCl), adjusting the pH to 1.2. • Step 3) The buffered solution obtained in step 1) was mixed with 50 ml of simulated gastric medium, in order to obtain a final solution of 100 ml with 0.1 N HCL. • Step 4) Semaglutide was added to the solution obtained in step 3), in is order to obtain a final concentration of semaglutide of 0.05 mg/ml. • Step 5) Pepsin was added to the solution obtained in step 4) at a final concentration of 3.2 mg/ml or without addition of pepsin (without pepsin), and the solution obtained was kept under constant stirring at 37° C. for 2 hours.
(§2) The semaglutide assay was performed by ultra-high performance liquid chromatography (UHPLC) coupled to an ultraviolet (UV) detector using an external standard calibration. The residual semaglutide content was calculated by measuring the semaglutide content at time t relative to the initial semaglutide content. The result is a ratio expressed in percent (%). The residual content of semaglutide corresponds to the protection percentage of semaglutide.

[2] = Stability of semaglutide in simulated gastric medium at pH 1.2 without pepsin (Example 2, UHPLC-UV); settings: for Semaglutide residual content (%): simulated gastric medium at pH 1.2 without pepsin, 0.05 mg/ml semaglutide, 37° C.
Description: as §1, §2

pepsin [3] = molecular target: T1, pepsin; assay: Protection of semaglutide compared to Rybelsus under gastric conditions reproduced in vitro, with pepsin (Example 4, HPLC); settings: buffered solution; simulated gastric medium pH 1.2 with pepsin (3.2 mg/mL); 0.05 mg/ml of semaglutide; T = 2 h; 37° C.
Description: (§3) The gastro-resistance tests with semaglutide were carried out at a concentration of 0.05 mg/mL (5 mg of semaglutide in final 100 mL). The simulated gastric medium was prepared following the same protocol as that described in Example 3.
(§4) The product Rybelsus® comprises Semaglutide, Sodium Salcaprozate (SNAC), Povidone, Microcrystalline Cellulose, and Magnesium Stearate. • Step 1) A 14 mg Rybelsus® tablet was used for the comparative tests and was dissolved in 50 mL of drinking water for thirty minutes with stirring. The final semaglutide concentration was 0.28 mg/mL. • Step 2) An effervescent tablet (according to Example 1A) was added or not to the solution obtained in step 1. After cessation of effervescence, 50 ml of 0.2 N HCL at pH 1.2 were added to obtain a final solution of 100 ml of 0.1 N HCL, which corresponds to the simulated gastric environment. The final concentration of semaglutide is 14 mg per 100 mL. • Step 3) The pepsin was then added or not to the solution obtained in step 2, at the conventional dose of 3.2 mg/ml. The test was carried out for 2 hours at a temperature of 37° C.
The semaglutide content was specifically assayed by high performance liquid chromatography (HPLC). The residual content was calculated by measuring the semaglutide content at time t relative to the initial semaglutide content. The result is a ratio expressed in percent (%). […]

[4] = Stability of semaglutide compared to Rybelsus in simulated gastric medium pH 1.2 without pepsin (Example 4, HPLC); settings: for Residual semaglutide content in percent (%): buffered solution, simulated gastric medium pH 1.2 without pepsin, 0.05 mg/mL of semaglutide, 37° C.
Description: as §3, §4
The semaglutide content was specifically assayed by high performance liquid chromatography (HPLC). The residual content was calculated by measuring the semaglutide content at time t relative to the initial semaglutide content. The result is a ratio expressed in percent (%). The residual content of semaglutide corresponds to the percentage of protection of the semaglutide.

T1 sequence (P00791 60-385): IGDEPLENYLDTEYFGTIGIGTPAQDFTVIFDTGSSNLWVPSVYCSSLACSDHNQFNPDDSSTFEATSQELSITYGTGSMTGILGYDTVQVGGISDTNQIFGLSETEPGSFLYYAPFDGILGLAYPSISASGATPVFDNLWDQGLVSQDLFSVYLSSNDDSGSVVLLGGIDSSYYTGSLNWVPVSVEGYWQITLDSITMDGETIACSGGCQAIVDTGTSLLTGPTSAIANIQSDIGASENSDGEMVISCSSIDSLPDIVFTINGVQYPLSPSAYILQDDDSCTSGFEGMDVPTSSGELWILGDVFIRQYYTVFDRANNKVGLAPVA

CC[C@H](C)[C@H](NC(=O)[C@H](Cc1ccccc1)NC(=O)[C@H](CCC(=O)O)NC(=O)[C@H](CCCCNC(=O)COCCOCCNC(=O)COCCOCCNC(=O)CC[C@H](NC(=O)CCCCCCCCCCCCCCCCC(=O)O)C(=O)O)NC(=O)[C@H](C)NC(=O)[C@H](C)NC(=O)[C@H](CCC(N)=O)NC(=O)CNC(=O)[C@H](CCC(=O)O)NC(=O)[C@H](CC(C)C)NC(=O)[C@H](Cc1ccc(O)cc1)NC(=O)[C@H](CO)NC(=O)[C@H](CO)NC(=O)[C@@H](NC(=O)[C@H](CC(=O)O)NC(=O)[C@H](CO)NC(=O)[C@@H](NC(=O)[C@H](Cc1ccccc1)NC(=O)[C@@H](NC(=O)CNC(=O)[C@H](CCC(=O)O)NC(=O)C(C)(C)NC(=O)[C@@H](N)Cc1cnc[nH]1)[C@@H](C)O)[C@@H](C)O)C(C)C)C(=O)N[C@@H](C)C(=O)N[C@@H](Cc1c[nH]c2ccccc12)C(=O)N[C@@H](CC(C)C)C(=O)N[C@H](C(=O)N[C@@H](CCCNC(=N)N)C(=O)NCC(=O)N[C@@H](CCCNC(=N)N)C(=O)NCC(=O)O)C(C)C [semaglutide]
residual content (pepsin [1]; acid medium with pepsin and without a buffer system, time not given): 0%
Semaglutide residual content (%) (pepsin [1]; with the buffered solution (Example 1A tablet)): 104.6%
Semaglutide residual content (%) (pepsin [1]; without buffer system): 0%
degradation of semaglutide (in words) ([2]; formulated with a buffer system, after 2 hours, without pepsin): not degraded
Semaglutide residual content (%) ([2]; with the buffered solution (Example 1A tablet), T 0 h): 103.5%
Semaglutide residual content (%) ([2]; with the buffered solution (Example 1A tablet), T 2 h): 104.1%
Semaglutide residual content (%) ([2]; without buffer system, T 0 h): 100%
Residual semaglutide content in percent (%) (pepsin [3]): 105.2%
Residual semaglutide content in percent (%) ([4]; T = 1 h): 103.5%
Residual semaglutide content in percent (%) ([4]; T = 2 h): 104.1%
stability of semaglutide (in words) ([4]; in the absence of pepsin, in the presence of the buffer system): stable

Source: patent US12667605B2, “Pharmaceutical composition for oral administration of a GLP-1 receptor agonist” (priority 2021, dated 2026)
